The values that follow come from ChEMBL document CHEMBL1629665, “Contribution of vraSR and graSR point mutations to vancomycin resistance in vancomycin-intermediate Staphylococcus aureus” (2009).

Converted amounts (≈) assume the structure as drawn.

What all share (format): functional
For experiment [1], the system named is Staphylococcus aureus. In words: Antibacterial activity against vancomycin-susceptible Staphylococcus aureus Mu50omega after 48 hrs by Etest in presence of Sulbactam.
In experiment [2] the test system is Staphylococcus aureus. In words: Antibacterial activity against vancomycin-intermediate Staphylococcus aureus Mu50 after 24 hrs by Etest.
Experiment [3] concerns Staphylococcus aureus. Kind of experiment: Antibacterial activity against vancomycin-susceptible Staphylococcus aureus Mu50omega expressing vraSn mutant gene after 48 hrs by Etest.
The test system of experiment [4] is Staphylococcus aureus. In words: Antibacterial activity against vancomycin-susceptible Staphylococcus aureus Mu50omega expressing vraSm mutant gene after 48 hrs by Etest in presence of Sulbactam.
The subject of experiment [5] is Staphylococcus aureus. In words: Antibacterial activity against vancomycin-susceptible Staphylococcus aureus Mu50omega expressing vraSn mutant gene after 24 hrs by Etest in presence of Sulbactam.
Experiment [6] relates to Staphylococcus aureus. Kind of experiment: Antibacterial activity against vancomycin-intermediate Staphylococcus aureus Mu50 after 24 hrs by Etest in presence of Sulbactam. As to conditions: Mu50, 24 h.
Experiment [7] has as its system Staphylococcus aureus. Kind of experiment: Antibacterial activity against vancomycin-susceptible Staphylococcus aureus Mu50omega expressing vraSm mutant gene after 48 hrs by Etest.
In experiment [8] the test system is Staphylococcus aureus. Kind of experiment: Antibacterial activity against vancomycin-susceptible Staphylococcus aureus Mu50omega expressing vraSn mutant gene after 24 hrs by Etest.
For experiment [9], the system named is Staphylococcus aureus. Kind of experiment: Antibacterial activity against vancomycin-susceptible Staphylococcus aureus Mu50omega expressing vraSm, graRm mutant gene after 48 hrs by Etest.
Experiment [10] concerns Staphylococcus aureus. In words: Antibacterial activity against vancomycin-susceptible Staphylococcus aureus Mu50omega expressing vraSm mutant gene after 24 hrs by Etest in presence of Sulbactam.
Experiment [11] relates to Staphylococcus aureus. Kind of experiment: Antibacterial activity against vancomycin-intermediate Staphylococcus aureus Mu50 after 48 hrs by Etest.
Experiment [12] deals with Staphylococcus aureus. Kind of experiment: Antibacterial activity against vancomycin-susceptible Staphylococcus aureus Mu50omega expressing vraSm mutant gene after 24 hrs by Etest.
The subject of experiment [13] is Staphylococcus aureus. Kind of experiment: Antibacterial activity against vancomycin-susceptible Staphylococcus aureus Mu50omega after 48 hrs by Etest.
For experiment [14], the system named is Staphylococcus aureus. Kind of experiment: Antibacterial activity against vancomycin-susceptible Staphylococcus aureus Mu50omega expressing vraSn mutant gene after 48 hrs by Etest in presence of Sulbactam.
The test system of experiment [15] is Staphylococcus aureus. In words: Antibacterial activity against vancomycin-susceptible Staphylococcus aureus Mu50omega expressing vraSm, graRm mutant gene after 24 hrs by Etest.
Experiment [16] concerns Staphylococcus aureus. Kind of experiment: Antibacterial activity against vancomycin-susceptible Staphylococcus aureus Mu50omega expressing vraSm, graRm mutant gene after 48 hrs by Etest in presence of Sulbactam.
Experiment [17] relates to Staphylococcus aureus. Kind of experiment: Antibacterial activity against vancomycin-susceptible Staphylococcus aureus Mu50omega after 24 hrs by Etest in presence of Sulbactam.
The subject of experiment [18] is Staphylococcus aureus. In words: Antibacterial activity against vancomycin-susceptible Staphylococcus aureus Mu50omega expressing vraSm, graRm mutant gene after 24 hrs by Etest in presence of Sulbactam.
The subject of experiment [19] is Staphylococcus aureus. In words: Antibacterial activity against vancomycin-intermediate Staphylococcus aureus Mu50 after 48 hrs by Etest in presence of Sulbactam. As to conditions: Mu50, 48 h.
In experiment [20] the test system is Staphylococcus aureus. In words: Antibacterial activity against vancomycin-susceptible Staphylococcus aureus Mu50omega after 24 hrs by Etest.

By MIC is commonly meant the least concentration at which growth counts as inhibited. In the case of `CC1(C)S[C@@H]2[C@H](NC(=O)[C@H](N)c3ccccc3)C(=O)N2[C@H]1C(=O)O` [AMPICILLIN], the MIC with Staphylococcus aureus [1] came out at 2 mg/L; against Staphylococcus aureus [2] (Mu50, 24 h) it was 8 mg/L (≈ 22.9 µM); in the experiment with Staphylococcus aureus [3], 12 mg/L (≈ 34.3 µM); in the experiment on Staphylococcus aureus [4] it was 64 mg/L; in the experiment with Staphylococcus aureus [5], 48 mg/L; in the experiment on Staphylococcus aureus [6], 48 mg/L. In addition, the MIC against Staphylococcus aureus [7] came out at 12 mg/L (≈ 34.3 µM); against Staphylococcus aureus [8], 12 mg/L (≈ 34.3 µM); against Staphylococcus aureus [9], 12 mg/L (≈ 34.3 µM); in the experiment on Staphylococcus aureus [10] it was 64 mg/L; in the experiment with Staphylococcus aureus [11] (Mu50, 48 h) it was 8 mg/L (≈ 22.9 µM); in the experiment on Staphylococcus aureus [12], 12 mg/L (≈ 34.3 µM). In addition, the MIC in the experiment with Staphylococcus aureus [13] was 1 mg/L (≈ 2.86 µM); in the experiment with Staphylococcus aureus [14] it was 48 mg/L; against Staphylococcus aureus [15] it was 12 mg/L (≈ 34.3 µM); in the experiment on Staphylococcus aureus [16], 64 mg/L; in the experiment on Staphylococcus aureus [17] it was 2 mg/L; in the experiment on Staphylococcus aureus [18] it was 64 mg/L. The results for the MIC in the experiment with Staphylococcus aureus [19] and with Staphylococcus aureus [20] were 48 mg/L and 1 mg/L (≈ 2.86 µM), respectively.

`CN[C@H](CC(C)C)C(=O)N[C@H]1C(=O)N[C@@H](CC(N)=O)C(=O)N[C@H]2C(=O)N[C@H]3C(=O)N[C@H](C(=O)N[C@H](C(=O)O)c4cc(O)cc(O)c4-c4cc3ccc4O)[C@H](O)c3ccc(c(Cl)c3)Oc3cc2cc(c3O[C@@H]2O[C@H](CO)[C@@H](O)[C@H](O)[C@H]2O[C@H]2C[C@](C)(N)[C@H](O)[C@H](C)O2)Oc2ccc(cc2Cl)[C@H]1O` [VANCOMYCIN]: the MIC against Staphylococcus aureus [2] (Mu50, 24 h) worked out at 6 mg/L (≈ 4.14 µM); against Staphylococcus aureus [3], 4 mg/L (≈ 2.76 µM); in the experiment on Staphylococcus aureus [7] it was 5 mg/L (≈ 3.45 µM); in the experiment on Staphylococcus aureus [8], 3.5 mg/L (≈ 2.42 µM); in the experiment with Staphylococcus aureus [9], 7 mg/L (≈ 4.83 µM); in the experiment with Staphylococcus aureus [11] (Mu50, 48 h), 7 mg/L (≈ 4.83 µM). Further, the MIC with Staphylococcus aureus [12] was determined as 4.5 mg/L (≈ 3.11 µM); with Staphylococcus aureus [13] it was 1 mg/L (≈ 0.69 µM); against Staphylococcus aureus [15], 6 mg/L (≈ 4.14 µM); in the experiment with Staphylococcus aureus [20] it was 0.5 mg/L (≈ 0.345 µM).

Consider GENTAMICIN, for which the MIC was 0.128 mg/L in the experiment on Staphylococcus aureus [2]; 0.064 mg/L against Staphylococcus aureus [3]; 0.064 mg/L against Staphylococcus aureus [7]; 64 mg/L in the experiment on Staphylococcus aureus [8]; 0.064 mg/L in the experiment with Staphylococcus aureus [9]; 0.128 mg/L against Staphylococcus aureus [11]. Besides, the MIC against Staphylococcus aureus [12], against Staphylococcus aureus [13], in the experiment on Staphylococcus aureus [15] and with Staphylococcus aureus [20] was 0.064 mg/L throughout.
